Reference: patent US9353083B2, “Oxazetidine derivatives, process for preparing them and use in human medicine and in cosmetics” (GALDERMA RESEARCH & DEVELOPMENT, priority 2011, dated 2016)
pEC50, pIC50: −log10 of the molar value.

Tests used:
Assay type in all cases: cell-based
hMC4R = hMC4R (Homo sapiens (Human), UniProt P32245); assay: Transactivation test melanocortin receptors (CRE-Luc, HEK293), hMC4R; settings: HEK293, pCRE-Luc, agonist mode; read-out: EC50 hMC4-R
Experimental: The aim of this example is to show the Melanocortine receptor selectivity of compound 1 and compound 6 of the present invention: • Cells: The lines HEK293 are transfected with vectors pCRE-Luc and hMC1R or hMC4R. The cells are cultured at 37° C. and 5% CO2, in DMEM medium supplemented with 10% foetal calf serum. • Test principle: In the presence of an activator (agonist), the melanocortin receptor will activate the cAMP pathway, which, via the vector CRE-Luc, will lead to the synthesis of luciferase. After addition of a lysis buffer containing a luminescent luciferase substrate, the luminescence proportional to the degree of activation or inhibition of receptor may be measured. • Testing the products: The products are dissolved at 10 mM in DMSO. They are tested as a response dose at 0.1% of DMSO final. The range comprising 10 points and a zero starts at 10 μM with four-fold dilutions. To test agonists, the products are tested alone. To determine the antagonist behaviour, the products of interest are tested in the presence of 1 nM NDP-MSH (reference agonist). […] After adding the lysis buffer containing luciferin, the plates are read in a Top-Count machine. […] An EC50 is calculated for each product using the XLFit software.

hMC1R = hMC1R (Homo sapiens (Human), UniProt Q01726); assay: Transactivation test melanocortin receptors (CRE-Luc, HEK293), hMC1R; settings: for pEC50: HEK293, pCRE-Luc, agonist mode, read-out: EC50 hMC1-R
Sequence of hMC1R (Q01726 whole entry): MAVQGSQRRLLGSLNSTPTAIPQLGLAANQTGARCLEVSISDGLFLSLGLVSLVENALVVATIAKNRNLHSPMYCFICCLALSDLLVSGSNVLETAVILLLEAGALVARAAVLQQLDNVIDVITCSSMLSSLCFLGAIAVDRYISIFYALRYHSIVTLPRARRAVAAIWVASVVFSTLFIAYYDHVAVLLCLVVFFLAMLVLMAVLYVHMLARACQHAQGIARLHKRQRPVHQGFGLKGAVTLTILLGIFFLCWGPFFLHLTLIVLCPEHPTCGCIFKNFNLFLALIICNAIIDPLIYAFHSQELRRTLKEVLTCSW
Experimental: The aim of this example is to show the Melanocortine receptor selectivity of compound 1 and compound 6 of the present invention: • Cells: The lines HEK293 are transfected with vectors pCRE-Luc and hMC1R or hMC4R. The cells are cultured at 37° C. and 5% CO2, in DMEM medium supplemented with 10% foetal calf serum. • Test principle: In the presence of an activator (agonist), the melanocortin receptor will activate the cAMP pathway, which, via the vector CRE-Luc, will lead to the synthesis of luciferase. After addition of a lysis buffer containing a luminescent luciferase substrate, the luminescence proportional to the degree of activation or inhibition of receptor may be measured. • Testing the products: The products are dissolved at 10 mM in DMSO. They are tested as a response dose at 0.1% of DMSO final. The range comprising 10 points and a zero starts at 10 μM with four-fold dilutions. To test agonists, the products are tested alone. To determine the antagonist behaviour, the products of interest are tested in the presence of 1 nM NDP-MSH (reference agonist). The cells are inoculated at a rate of 5000 cells per well (384-well plate) in serum-free DMEM medium and incubated overnight at 37° C. and 5% CO2. • The products and the reference ligand (NDP-MSH) are added the following day and the plates are reincubated for 6 hours at 37° C. and 5% CO2. After adding the lysis buffer containing luciferin, the plates are read in a Top-Count machine. The results are normalized as percentage of activity using the 100% (cells+NDP-MSH at 10 nM) and 0% (cells alone) controls. An EC50 is calculated for each product using the XLFit software.

hERG potassium channel = hERG potassium channel (Homo sapiens (Human), UniProt Q12809); assay: hERG channel test: effect on amplitude of IKr in hERG transfected cells; settings: for effect on the amplitude of IKr encoded by hERG (change in percentage relative to the control): hERG transfected human cells; for effect observed on the amplitude of IKr (in words): 1, 3 and 10 μM; for lengthening the QT time (conclusion from hERG test): under the experimental conditions; for pIC50: estimated from 1, 3 and 10 μM, read-out: Estimated IC50 for hERG channel blockade; for concentration from which the decrease of the amplitude of IKr starts: tested at 1, 3 and 10 μM; for decrease of the amplitude of IKr: with 10 μM
Sequence of hERG potassium channel (Q12809 whole entry): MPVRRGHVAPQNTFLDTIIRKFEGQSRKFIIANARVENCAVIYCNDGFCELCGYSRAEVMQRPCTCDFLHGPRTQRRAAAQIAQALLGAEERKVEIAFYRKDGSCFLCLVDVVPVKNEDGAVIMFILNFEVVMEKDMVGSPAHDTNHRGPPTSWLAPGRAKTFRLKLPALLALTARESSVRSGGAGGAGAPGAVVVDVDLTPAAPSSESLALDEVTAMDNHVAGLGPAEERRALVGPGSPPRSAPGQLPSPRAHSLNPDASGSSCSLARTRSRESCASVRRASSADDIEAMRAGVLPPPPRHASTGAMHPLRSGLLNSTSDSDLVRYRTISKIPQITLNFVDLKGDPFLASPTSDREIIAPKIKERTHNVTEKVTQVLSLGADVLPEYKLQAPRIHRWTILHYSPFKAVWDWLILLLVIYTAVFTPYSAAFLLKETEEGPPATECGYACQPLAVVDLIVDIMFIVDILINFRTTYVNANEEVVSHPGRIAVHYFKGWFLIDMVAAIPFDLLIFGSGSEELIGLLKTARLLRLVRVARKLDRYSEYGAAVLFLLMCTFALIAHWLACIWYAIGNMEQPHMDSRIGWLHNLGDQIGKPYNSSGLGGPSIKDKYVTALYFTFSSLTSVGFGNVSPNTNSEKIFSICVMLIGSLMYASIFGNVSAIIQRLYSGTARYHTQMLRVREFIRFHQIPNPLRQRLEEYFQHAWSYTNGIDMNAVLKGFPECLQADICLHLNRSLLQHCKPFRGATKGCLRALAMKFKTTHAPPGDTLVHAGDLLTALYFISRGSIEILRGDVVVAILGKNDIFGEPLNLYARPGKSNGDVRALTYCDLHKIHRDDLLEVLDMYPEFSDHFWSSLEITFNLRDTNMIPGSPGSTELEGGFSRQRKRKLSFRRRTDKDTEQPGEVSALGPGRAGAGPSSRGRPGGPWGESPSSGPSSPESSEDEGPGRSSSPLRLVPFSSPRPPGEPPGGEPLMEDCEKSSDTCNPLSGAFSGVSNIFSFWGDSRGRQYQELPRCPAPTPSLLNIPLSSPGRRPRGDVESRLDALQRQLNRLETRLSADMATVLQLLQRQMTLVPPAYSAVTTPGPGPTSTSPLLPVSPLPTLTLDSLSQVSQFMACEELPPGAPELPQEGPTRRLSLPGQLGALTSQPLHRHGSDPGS
Experimental: The object of the study was to track down the inhibition profile of seven selective compounds from human cell lines stably transfected with the gene for expressing the IKr protein of the hERG potassium channel. Several MC1R agonist compounds and especially the compounds of interest in the context of the invention were evaluated. The toxicity evaluation was performed using three increasing concentrations (1, 3 and 10 μM) of 2 hERG transfected cells (no reference compound used) of the following compounds: • Compound 1: N-[(R)-2-[3-(4-hydroxybutoxy)-3-o-tolylazetidin-1-yl]-1-(4-methoxybenzyl)-2-oxoethyl]-3-(1H-imidazol-4-yl)propionamide • Compound 2: (S)-N-[(R)-2-(3-butoxy-3-o-tolylazetidin-1-yl)-1-(4-methoxybenzyl)-2-oxoethyl]-2-hydroxy-3-(1H-imidazol-4-yl)propionamide • Compound 3: 3-(1H-imidazol-4-yl)-N-{(R)-1-(4-methoxybenzyl)-2-oxo-2-[3-o-tolyl-3-(4,4,4-trifluorobutoxy)azetidin-1-yl]ethyl}propionamide • Compound 4: N-[(R)-2-(3-but-2-ynyloxy-3-o-tolylazetidin-1-yl)-1-(4-methoxybenzyl)-2-oxoethyl]-3-(5-methyl-1H-imidazol-4-yl)propionamide • Compound 5: N-[(R)-2-(3-cyclobutylmethoxy-3-o-tolylazetidin-1-yl)-1-(4-methoxybenzyl)-2-oxoethyl]-3-(5-methyl-1H-imidazol-4-yl)propionamide • Compound 6: N-[(R)-2-(3-cyclopropylmethoxy-3-o-tolylazetidin-1-yl)-1-(4-methoxybenzyl)-2-oxoethyl]-3-(5-methyl-1H-imidazol-4-yl)propionamide • Compound 7: N-[(R)-2-(3-butoxy-3-o-tolylazetidin-1-yl)-1-(4-methoxybenzyl)-2-oxoethyl]-3-guanidinopropionamide; bis(trifluoroacetic acid) salt
The effect on the amplitude of IKr encoded by hERG (as the changes in percentages relative to the control) are summarized per compound and per concentration in Table 1 below.

Sequence of hMC4R (P32245 whole entry): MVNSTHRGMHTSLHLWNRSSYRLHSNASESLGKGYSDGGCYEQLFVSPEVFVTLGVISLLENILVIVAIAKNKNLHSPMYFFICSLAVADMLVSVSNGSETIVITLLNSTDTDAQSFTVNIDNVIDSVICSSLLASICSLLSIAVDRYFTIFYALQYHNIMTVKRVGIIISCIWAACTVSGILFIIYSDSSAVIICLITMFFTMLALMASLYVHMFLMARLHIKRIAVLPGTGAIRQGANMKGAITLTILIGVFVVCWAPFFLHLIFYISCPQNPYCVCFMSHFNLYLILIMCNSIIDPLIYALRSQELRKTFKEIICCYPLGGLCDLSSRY

| SMILES | pEC50 (hMC4R) | melanocortin receptor selectivity (hMC1R versus hMC4R) (hMC1R) | pEC50 (hMC1R) | cardiotoxic alert on the hERG channel test (hERG potassium channel) | effect on the amplitude of IKr encoded by hERG (change in percentage relative to the control) (hERG potassium channel; 1 μM) | effect on the amplitude of IKr encoded by hERG (change in percentage relative to the control) (hERG potassium channel; 3 μM) [%] | effect on the amplitude of IKr encoded by hERG (change in percentage relative to the control) (hERG potassium channel; 10 μM) [%] | effect observed on the amplitude of IKr (in words) (hERG potassium channel) | lengthening the QT time (conclusion from hERG test) (hERG potassium channel) | pIC50 (hERG potassium channel) | concentration from which the decrease of the amplitude of IKr starts (hERG potassium channel) [nM] | decrease of the amplitude of IKr (hERG potassium channel) [%] |
| --- | --- | --- | --- | --- | --- | --- | --- | --- | --- | --- | --- | --- |
| COc1ccc(C[C@@H](NC(=O)CCc2c[nH]cn2)C(=O)N2CC(OCCCCO)(c3ccccc3C)C2)cc1 [Compound 1, N-[(R)-2-[3-(4-hydroxybutoxy)-3-o-tolylazetidin-1-yl]-1-(4-methoxybenzyl)-2-oxoethyl]-3-(1H-imidazol-4-yl)propionamide] | 5.10 | hMC1R highly selective | 6.60 | do not present any cardiotoxic alert | −1.5 ± 2.5% | −3.0 ± 1.0 | −7.5 ± 3.5 | no effect observed | did not exhibit this characteristic | – | – | – |
| CCCCOC1(c2ccccc2C)CN(C(=O)[C@@H](Cc2ccc(OC)cc2)NC(=O)[C@@H](O)Cc2c[nH]cn2)C1 [Compound 2, (S)-N-[(R)-2-(3-butoxy-3-o-tolylazetidin-1-yl)-1-(4-methoxybenzyl)-2-oxoethyl]-2-hydroxy-3-(1H-imidazol-4-yl)propionamide] | – | – | – | – | +1.0 ± 1.0% | −5.0 ± 5.0 | −51.5 ± 6.5 | modified but only at the highest concentration | more substantially | 5.00 | – | – |
| COc1ccc(C[C@@H](NC(=O)CCc2c[nH]cn2)C(=O)N2CC(OCCCC(F)(F)F)(c3ccccc3C)C2)cc1 [Compound 3, 3-(1H-imidazol-4-yl)-N-{(R)-1-(4-methoxybenzyl)-2-oxo-2-[3-o-tolyl-3-(4,4,4-trifluorobutoxy)azetidin-1-yl]ethyl}propionamide] | – | – | – | – | −16.0 ± 3.0% | −42.5 ± 5.5 | −86.5 ± 3.5 | dose effect observed | more substantially | < 5.52 | 1000 | 86.5 |
| CC#CCOC1(c2ccccc2C)CN(C(=O)[C@@H](Cc2ccc(OC)cc2)NC(=O)CCc2nc[nH]c2C)C1 [Compound 4, N-[(R)-2-(3-but-2-ynyloxy-3-o-tolylazetidin-1-yl)-1-(4-methoxybenzyl)-2-oxoethyl]-3-(5-methyl-1H-imidazol-4-yl)propionamide] | – | – | – | – | −20.5 ± 9.5% | −22.0 ± 10.0 | −42.5 ± 2.5 | dose effect observed | more substantially | < 5.00 | 3000 | 42.5 |
| COc1ccc(C[C@@H](NC(=O)CCc2nc[nH]c2C)C(=O)N2CC(OCC3CCC3)(c3ccccc3C)C2)cc1 [Compound 5, N-[(R)-2-(3-cyclobutylmethoxy-3-o-tolylazetidin-1-yl)-1-(4-methoxybenzyl)-2-oxoethyl]-3-(5-methyl-1H-imidazol-4-yl)propionamide] | – | – | – | – | −17.0 ± 4.0% | −49.5 ± 16.5 | −76.5 ± 17.5 | dose effect observed | more substantially | 5.52 | 1000 | 76.5 |
| COc1ccc(C[C@@H](NC(=O)CCc2nc[nH]c2C)C(=O)N2CC(OCC3CC3)(c3ccccc3C)C2)cc1 [Compound 6, N-[(R)-2-(3-cyclopropylmethoxy-3-o-tolylazetidin-1-yl)-1-(4-methoxybenzyl)-2-oxoethyl]-3-(5-methyl-1H-imidazol-4-yl)propionamide] | 5.35 | hMC1R highly selective | 7.15 | do not present any cardiotoxic alert | −5.0 ± 3.0% | −9.5 ± 3.5 | −16.0 ± 7.0 | no effect observed | did not exhibit this characteristic | – | – | – |
| CCCCOC1(c2ccccc2C)CN(C(=O)[C@@H](Cc2ccc(OC)cc2)NC(=O)CCNC(=N)N)C1 [Compound 7, N-[(R)-2-(3-butoxy-3-o-tolylazetidin-1-yl)-1-(4-methoxybenzyl)-2-oxoethyl]-3-guanidinopropionamide] | – | – | – | – | −19.5 ± 4.5% | −29.5 ± 9.5 | −33.0 ± 12.0 | slight dose effect observed | slightly | < 5.00 | 1000 | 33 |
